The values that follow are results of earlier work, collected in patent publication US20110105449A1, “DRY POWDER FORMULATIONS COMPRISING ASCORBIC ACID DERIVATES” (ASTRAZENECA R&D, priority 2007, published 2011).

The conditions of the data set: at 25° C.

≈ marks a conversion by molar mass, not a printed value.

`CCCC1O[C@@H]2C[C@H]3[C@@H]4CCC5=CC(=O)C=C[C@]5(C)[C@H]4[C@@H](O)C[C@]3(C)[C@]2(C(=O)CO)O1` (stereo partly shown) [Budesonide, budesonide]: the water solubility is 16 µg/mL (≈ 37.2 µM).
